Results published in US20200216417A1, “INHIBITORS OF FIBROBLAST ACTIVATION PROTEIN” (Praxis Biotech LLC, priority 2019, published 2020).

Experiments:
Type in all cases: biochemical
[1] = target: T1, recombinant human DPPIV (rhDPPIV) (Homo sapiens, UniProt P27487); experiment: DPPIV enzymatic activity assay, H-Gly-Pro-pNA; conditions: Table 3B
T1 construct: purchased R&S system (so in the source)

[2] = target: T2, recombinant human DPP9 (rhDPP9) (Homo sapiens, UniProt Q86TI2); experiment: DPP9 inhibition assay, 10 ng rhDPP9, Tris-HCl/BSA buffer; conditions: Table 3B
T2 construct: purchased R&S system / R&D systems (both sic) 5419-SE
T2 sequence (Q86TI2 whole entry): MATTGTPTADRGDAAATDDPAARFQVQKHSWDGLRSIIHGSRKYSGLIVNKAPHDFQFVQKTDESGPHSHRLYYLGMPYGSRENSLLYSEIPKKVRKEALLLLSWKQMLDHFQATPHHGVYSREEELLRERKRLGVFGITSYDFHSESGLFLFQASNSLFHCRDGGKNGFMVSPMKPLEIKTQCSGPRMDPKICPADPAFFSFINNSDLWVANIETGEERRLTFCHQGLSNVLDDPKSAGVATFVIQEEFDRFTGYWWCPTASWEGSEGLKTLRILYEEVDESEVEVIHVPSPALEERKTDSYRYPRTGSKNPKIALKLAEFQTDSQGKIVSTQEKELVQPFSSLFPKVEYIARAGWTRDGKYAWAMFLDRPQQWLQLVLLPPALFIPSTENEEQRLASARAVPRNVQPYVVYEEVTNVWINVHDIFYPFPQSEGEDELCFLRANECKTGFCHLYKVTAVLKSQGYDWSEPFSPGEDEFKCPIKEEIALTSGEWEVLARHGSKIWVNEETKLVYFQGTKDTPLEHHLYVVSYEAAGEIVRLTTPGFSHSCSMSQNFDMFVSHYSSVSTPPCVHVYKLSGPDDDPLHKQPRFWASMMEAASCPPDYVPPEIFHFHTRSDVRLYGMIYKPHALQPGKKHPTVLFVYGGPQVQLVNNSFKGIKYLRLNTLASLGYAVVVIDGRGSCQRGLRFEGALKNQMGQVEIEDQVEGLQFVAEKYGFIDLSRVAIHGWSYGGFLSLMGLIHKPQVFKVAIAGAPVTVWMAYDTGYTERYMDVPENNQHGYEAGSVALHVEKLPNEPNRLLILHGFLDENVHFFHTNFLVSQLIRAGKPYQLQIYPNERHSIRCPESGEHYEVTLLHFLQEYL

[3] = target: T3, recombinant human FAPα (rhFAPα) (Homo sapiens, UniProt Q12884); experiment: FAPα enzymatic exopeptidase (dipeptidase) activity assay, Z-Gly-Pro-AMC; conditions: Table 3B; for IC50: read-out: rhFAP IC50; for inhibition at 1 µM: exopeptidase inhibition at 1 μM test compound, read-out: rhFAPα % exo inh @ 1 μM
T3 construct: purchased R&S system (so in the source)
T3 sequence (Q12884 1-760): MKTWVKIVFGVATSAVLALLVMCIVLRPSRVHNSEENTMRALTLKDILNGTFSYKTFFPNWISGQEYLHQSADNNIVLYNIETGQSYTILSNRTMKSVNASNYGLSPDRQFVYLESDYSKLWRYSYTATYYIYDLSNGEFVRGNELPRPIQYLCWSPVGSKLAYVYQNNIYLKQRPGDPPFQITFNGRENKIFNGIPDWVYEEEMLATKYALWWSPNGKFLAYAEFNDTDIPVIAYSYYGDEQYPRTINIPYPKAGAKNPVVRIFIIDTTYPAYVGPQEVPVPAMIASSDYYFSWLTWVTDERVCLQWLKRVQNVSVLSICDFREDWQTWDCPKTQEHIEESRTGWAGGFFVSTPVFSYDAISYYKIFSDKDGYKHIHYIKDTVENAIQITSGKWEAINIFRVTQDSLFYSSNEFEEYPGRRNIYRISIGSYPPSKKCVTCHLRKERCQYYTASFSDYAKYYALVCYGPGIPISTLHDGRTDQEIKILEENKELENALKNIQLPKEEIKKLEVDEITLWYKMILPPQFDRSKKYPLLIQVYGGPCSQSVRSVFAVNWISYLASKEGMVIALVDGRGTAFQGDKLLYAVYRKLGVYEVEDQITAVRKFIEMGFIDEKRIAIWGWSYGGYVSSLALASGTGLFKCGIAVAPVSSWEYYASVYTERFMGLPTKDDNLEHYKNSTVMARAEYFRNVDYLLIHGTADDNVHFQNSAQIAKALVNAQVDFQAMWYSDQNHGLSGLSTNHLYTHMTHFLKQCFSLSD

[4] = target: T4, recombinant human PREP (rhPREP) (Homo sapiens, UniProt P48147); experiment: PREP enzymatic activity assay, Z-Gly-Pro-AMC; conditions: Table 3B
T4 sequence (P48147 1-710): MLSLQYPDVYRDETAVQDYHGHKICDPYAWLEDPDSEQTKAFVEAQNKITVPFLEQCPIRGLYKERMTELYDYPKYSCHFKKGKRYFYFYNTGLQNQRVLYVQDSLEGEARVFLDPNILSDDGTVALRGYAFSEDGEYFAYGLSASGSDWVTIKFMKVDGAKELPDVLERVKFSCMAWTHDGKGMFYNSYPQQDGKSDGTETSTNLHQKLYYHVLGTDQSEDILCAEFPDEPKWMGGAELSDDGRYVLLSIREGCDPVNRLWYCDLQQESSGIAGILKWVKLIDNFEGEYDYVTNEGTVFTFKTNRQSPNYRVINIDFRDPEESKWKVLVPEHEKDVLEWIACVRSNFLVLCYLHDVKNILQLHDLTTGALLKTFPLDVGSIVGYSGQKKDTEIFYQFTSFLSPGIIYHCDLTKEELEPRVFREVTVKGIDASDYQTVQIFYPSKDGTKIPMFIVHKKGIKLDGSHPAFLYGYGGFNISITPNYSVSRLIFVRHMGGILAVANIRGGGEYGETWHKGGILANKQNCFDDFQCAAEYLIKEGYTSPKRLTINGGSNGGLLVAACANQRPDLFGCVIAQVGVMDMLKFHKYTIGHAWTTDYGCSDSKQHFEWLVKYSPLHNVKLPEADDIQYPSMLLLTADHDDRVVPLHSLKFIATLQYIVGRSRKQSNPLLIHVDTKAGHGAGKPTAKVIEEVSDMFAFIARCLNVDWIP

T1 sequence (P27487 whole entry): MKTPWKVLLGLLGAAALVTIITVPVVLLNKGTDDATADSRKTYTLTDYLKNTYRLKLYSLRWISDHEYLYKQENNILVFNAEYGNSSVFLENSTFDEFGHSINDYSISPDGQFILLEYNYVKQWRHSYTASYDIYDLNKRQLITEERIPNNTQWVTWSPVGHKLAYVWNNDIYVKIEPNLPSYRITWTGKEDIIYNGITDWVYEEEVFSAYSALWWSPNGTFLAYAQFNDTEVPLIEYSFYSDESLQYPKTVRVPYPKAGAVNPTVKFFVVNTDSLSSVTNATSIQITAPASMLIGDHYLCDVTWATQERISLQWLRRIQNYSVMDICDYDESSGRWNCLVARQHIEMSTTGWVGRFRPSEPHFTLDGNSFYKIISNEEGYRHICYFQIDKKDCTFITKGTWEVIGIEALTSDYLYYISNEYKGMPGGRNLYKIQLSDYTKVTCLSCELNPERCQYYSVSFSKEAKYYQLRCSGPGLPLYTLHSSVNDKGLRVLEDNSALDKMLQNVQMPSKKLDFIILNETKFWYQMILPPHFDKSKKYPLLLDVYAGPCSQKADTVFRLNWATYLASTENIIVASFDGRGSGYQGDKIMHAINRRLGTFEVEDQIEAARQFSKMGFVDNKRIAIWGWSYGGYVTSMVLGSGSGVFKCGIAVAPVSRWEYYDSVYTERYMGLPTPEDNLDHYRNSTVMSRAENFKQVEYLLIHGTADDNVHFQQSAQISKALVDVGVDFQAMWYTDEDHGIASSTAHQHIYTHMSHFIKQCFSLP

SMILES | IC50 [1] | IC50 [2] | IC50 [3] | inhibition at 1 µM [3] | IC50 [4]
C/C(=C\c1cnccc1C(=O)NCC(=O)N1CC(F)(F)C[C@H]1C#N)c1ccc(OC(F)(F)F)cc1 [Compound 19] | > 10 µM | 1 to 10 µM | < 1 µM | > 50% | > 10 µM
C/C(=C\c1cnccc1C(=O)NCC(=O)N1CC(F)(F)C[C@H]1C#N)c1ccc(C(F)(F)F)cc1 [Compound 20] | > 10 µM | 1 to 10 µM | < 1 µM | > 50% | > 10 µM
N#C[C@@H]1CC(F)(F)CN1C(=O)CNC(=O)c1ccncc1/C=C/c1ccc(C(F)(F)F)cc1 [Compound 24] | 1 to 10 µM | 1 to 10 µM | < 1 µM | > 50% | > 10 µM
C/C(=C\c1cnccc1C(=O)NCC(=O)N1CC(F)(F)C[C@H]1C#N)c1ccc(Cl)cc1 [Compound 26] | > 10 µM | < 1 µM | < 1 µM | > 50% | > 10 µM
COc1ccc(/C(C)=C/c2cnccc2C(=O)NCC(=O)N2CC(F)(F)C[C@H]2C#N)cc1 [Compound 29] | > 10 µM | 1 to 10 µM | < 1 µM | > 50% | > 10 µM
N#C[C@@H]1CC(F)(F)CN1C(=O)CNC(=O)c1ccncc1/C=C/c1ccc(OC(F)(F)F)cc1 [Compound 33] | > 10 µM | < 1 µM | < 1 µM | > 50% | > 10 µM
N#C[C@@H]1CC(F)(F)CN1C(=O)CNC(=O)c1ccnc2ccc(-c3ccc(C(F)(F)F)cc3)cc12 [Compound 35] | > 10 µM | < 1 µM | < 1 µM | > 50% | > 10 µM
COc1ccc(C#Cc2cnccc2C(=O)NCC(=O)N2CC(F)(F)C[C@H]2C#N)cc1 [Compound 36] | > 10 µM | > 10 µM | < 1 µM | > 50% | > 10 µM
N#C[C@@H]1CC(F)(F)CN1C(=O)CNC(=O)c1ccncc1C#Cc1ccc(Cl)cc1 [Compound 37] | > 10 µM | > 10 µM | < 1 µM | > 50% | > 10 µM
N#C[C@@H]1CC(F)(F)CN1C(=O)CNC(=O)c1ccnc2ccc(-c3ccc(C(F)(F)F)nc3)cc12 [Compound 38] | > 10 µM | < 1 µM | < 1 µM | > 50% | > 10 µM
Cc1ccc(/C=C/c2ccc3nccc(C(=O)NCC(=O)N4CC(F)(F)C[C@H]4C#N)c3c2)nc1 [Compound 49] |  | < 1 µM | < 1 µM | > 50% | 
CC(C)(C)c1ccc(/C=C/c2ccc3nccc(C(=O)NCC(=O)N4CC(F)(F)C[C@H]4C#N)c3c2)cc1 [Compound 50] |  | 1 to 10 µM | < 1 µM | > 50% | 
N#C[C@@H]1CC(F)(F)CN1C(=O)CNC(=O)c1ccnc2ccc(/C=C/c3ccc(C(F)(F)F)cc3)cc12 [Compound 51] |  | < 1 µM | < 1 µM | > 50% | 
CN1CCN(c2ccc(-c3ccc4nccc(C(=O)NCC(=O)N5CC(F)(F)C[C@H]5C#N)c4c3)cn2)CC1 [Compound 52] |  | 1 to 10 µM | < 1 µM | > 50% | 
C[C@H](Nc1cnccc1C(=O)NCC(=O)N1CC(F)(F)C[C@H]1C#N)c1ccc(F)cc1 [Compound 190] | > 10 µM |  | < 1 µM | > 50% | 
C[C@@H](Nc1cnccc1C(=O)NCC(=O)N1CC(F)(F)C[C@H]1C#N)c1ccc(F)cc1 [Compound 191] | > 10 µM |  | < 1 µM | > 50% | 1 to 10 µM
CC(C)(O)c1ccc(-c2ccc3nccc(C(=O)NCC(=O)N4CC(F)(F)C[C@H]4C#N)c3c2)cc1 [Compound 195] | > 10 µM |  | < 1 µM | > 50% | > 10 µM
